In test [1] the test system is AP sites in calf thymus AP DNA. The experiment in a line: Genomic DNA time course of Cy7MX binding. As to conditions: heat/acid treated DNA, 37° C. The method, then:
Calf thymus DNA was purchased from Sigma and was reconstituted overnight at 4° C. in either H2O or 500 mM MX (to eliminate basal AP sites) with gentle shaking (1.5 mL water or solution per 5 mg DNA). For samples reconstituted in MX solution, an ethanol precipitation was performed twice before heat and acid treatment (vide infra) then reconstituted in water. The DNA-water solution was aliquoted to 1.5 mL Eppendorf tubes (360 μL) and 10× Citrate buffer (1M NaCl, 100 μM monosodium phosphate, 100 μM monosodium citrate, pH 5.0) was added to a final concentration of 1×. For t=0 min samples, ice-cold 100% EtOH (1.0 mL) was added immediately and the Eppendorf tubes stored at −20° C. Other samples were placed in a 70° C. heating block for 15-90 minutes in 15-minute increments. Samples were removed from heat, precipitated in ice-cold 100% EtOH (1.0 mL), and then chilled at −20° C. for at least 20 minutes. Samples were centrifuged at 12,000×G for 10 min at 4° C. The supernatant was discarded. The process was repeated once beginning with the addition of EtOH (1.0 mL). The DNA pellet was dissolved in 700 μL H2O or TE buffer. […]
A 100 mM stock solution of Cy7MX in DMSO was diluted to 25 μM in H2O. […] Aliquots (125 μL) of the samples were added to a black, clear-bottom 96 well plate (Corning) and analyzed with 750 nm excitation and 800 nm emission. Fluorescence was adjusted to DNA concentration.

Test [2] deals with U:A-paired DNA. As to the kind of experiment: SSB activity assay control reactions. Format: biochemical. The method, then: (§1) SSB Activity Assay Control Reactions
Samples were prepared in triplicate.
After evaluating the fluorescence properties of Cy7MX, its ability to bind to AP sites was examined We developed an assay using a fluorescently tagged dsDNA (double stranded DNA) oligonucleotide with a single uracil incorporated into the labeled strand (FIG. 5A). A green emitting hexachlorofluorescein (HEX) label was incorporated at the 5′ end of the sense strand in order to avoid overlapping with the NIR fluorecent emission of Cy7MX. We expected that treatment of this oligomer with UDG would generate an AP site and subsequent treatment with APE would produce a single strand break. This break could be visualized by denaturing gel electrophoresis to reveal a 16mer single strand DNA (ssDNA) instead of the 40mer parent (FIG. 5B). However, we hypothesized that if the oligomer were treated with Cy7MX prior to APE treatment, the covalent Cy7MX:AP site lesion would not be recognized by APE as a substrate and no SSB would form.

Test [3] relates to AP DNA. The experiment in a line: SSB activity assay, dose-response of AP site binding probes. Format: biochemical. The settings on record: 5 pmol AP DNA, FIG. 1. On the procedure:
FIG. 1 illustrates SSB activity assay is used to compare the dose-response of AP site binding probes in 5 pmol of AP DNA. Mean and standard deviation of triplicate samples are shown for each concentration.
The single strand break (SSB) assay was proposed as a quick, facile tool to screen AP site binding probes. Therefore, the assay was performed on novel AP site binding probes described above and the commercially available AP site binding probe, F422. […] The reduced response of F422 and DansylMX may be due in part to the compounds being fairly electron rich near the aminooxy binding moiety. This could lead to a Coulombic repulsion with the DNA phosphate backbone.
SSB activity assays were performed on a 40-mer duplex DNA synthesized by IDT with the sequence:
as §1

The target in test [4] is T1, APE (Homo sapiens, UniProt P27695).
T1 construct: purchased New England BioLabs
T1 sequence (P27695 whole entry): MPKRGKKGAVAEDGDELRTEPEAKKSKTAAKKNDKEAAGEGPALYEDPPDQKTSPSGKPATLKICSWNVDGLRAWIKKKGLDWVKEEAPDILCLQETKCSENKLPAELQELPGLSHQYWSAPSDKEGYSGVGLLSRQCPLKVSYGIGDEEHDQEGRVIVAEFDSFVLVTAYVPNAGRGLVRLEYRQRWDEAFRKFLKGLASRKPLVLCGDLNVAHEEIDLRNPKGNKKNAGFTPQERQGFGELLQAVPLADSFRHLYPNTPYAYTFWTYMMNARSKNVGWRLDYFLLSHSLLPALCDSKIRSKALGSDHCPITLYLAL
As to the kind of experiment: SSB activity assay APE inhibition. Format: biochemical. On the procedure: FIG. 7 illustrates the evaluation of APE inhibition by Cy7MX. […] APE is inhibited about 50% after 3 h incubation. The baseline reduction in cutting is due to competition of APE and Cy7MX for the AP-DNA substrate.
Meanwhile, five samples of each DNA reaction were prepared.
We determined if Cy7MX could inhibit the activity of the enzymes and thereby complicate the results on the assay. While the order of reagent addition in the assay may be structured to avoid enzyme inhibition, Cy7MX is envisioned as an imaging agent in living cells where the enzymes are constantly present. To test the possible inhibition of Cy7MX towards APE, the probe and enzyme were incubated together for a variable period of time then incubated for a fixed period of time with AP DNA (U:A DNA pretreated with UDG). If the two species were only competing for substrate, then the extent of cutting observed would be independent of the APE+Cy7MX incubation time. Conversely, if Cy7MX inhibits the action of APE, then the extent of cutting would vary as a function of APE+Cy7MX incubation time. In either case, some baseline reduction in cutting was expected as Cy7MX and APE competed for substrate. […] However, this effect was only observed after 60 minutes. Thus, the one hour incubation of APE in the cutting assay is not expected to be negatively impacted by the presence of Cy7MX.

Entries after “also recorded” stand apart in the source; their conditions may differ.

As for `CCCN1/C(=C/C=C2\CCCC(/C=C/C3=[N+](CCC)c4ccccc4C3(C)C)=C2Oc2ccc(CC(=O)NCCCON)cc2)C(C)(C)c2ccccc21` [Cy7MX, 2-((E)-2-((E)-2-(4-(2-((3-(aminooxy)propyl)amino)-2-oxoethyl)phenoxy)-3-((E)-2-(3,3-dimethyl-1-propylindolin-2-ylidene)ethylidene)cyclohex-1-en-1-yl)vinyl)-3,3-dimethyl-1-propyl-3H-indol-1-ium 2,2,2-trifluoroacetate], the “time to complete reaction” value in test [1] was “approximately 10 min”. For the same compound, the “SSB activity of the probe itself” value in test [2] (U:A-paired DNA treated with Cy7MX alone (no enzymes)) is given as “no SSB activity”. Also, the SSB activity result in test [2] (U:A-paired DNA with Cy7MX together with UDG and APE) is on record as “the SSB activity was reduced”. In addition, in test [3], the “dose-response and overall efficacy in SSB assay” value is “acceptable dose-response and overall efficacy”. Besides, the APE inhibition result in test [4] (60 min APE incubation) is recorded as “no detectable inhibition”; in test [4] (APE and Cy7MX incubated together before addition of AP-DNA, variable time, 2,2,2-trifluoroacetate), “did have inhibitory effects on APE; also recorded: mild inhibition”; in test [4] (after 3 h incubation of APE with Cy7MX), “about 50%”; in test [4] (tetrahydrofuran (THF) base in place of the AP site), “moderate inhibition of APE”.

For the origin of these results see patent US10718028B2, “Fluorescent probes for abasic site detection” (CASE WESTERN RESERVE UIVERSITY, priority 2015, dated 2020).
